# Experimental data published in US9265761B2, “Compositions and methods for treating purpura” (ALLERGAN, INC., priority 2007, dated 2016).
# Counter-ions that a name gives are not always drawn. Like-named read-outs stand apart in the source and are kept apart here.
# How the values were obtained:
# purpura = test: Resolution of pulsed-dye laser induced purpura, topical application after laser (Example 1); assay type: in vivo, human; conditions: commercial solutions applied topically every 6-8 hours after pulsed-dye laser (585 nm), trunk of a volunteer, followed 1-13 days; oxymetazoline HCl 0.05%, naphazoline HCl 0.03%, tetrahydrozoline HCl 0.05%, phenylephrine HCl 1.0%, brimonidine tartrate 0.2%
# Excerpt: The applied solution was allowed to air-dry without any dressing. […] The evaluated compounds were:
# The sites were followed clinically and photographically 1, 3, 4, 6, 11 and 13 days after the creation of the purpura.
# laser-induced purpura = test: Prevention of laser-induced purpura, topical pretreatment before laser (Example 2); assay type: in vivo, human; conditions: topical application 3 hours and 1 hour prior to laser; oxymetazoline HCl 0.05%, naphazoline HCl 0.03%, tetrahydrozoline HCl 0.05%, phenylephrine HCl 1.0%, brimonidine tartrate 0.2%
# Excerpt: In order to evaluate the effect of topically applied α1 and α2 adrenergic agonists on the prevention of laser-induced purpura on normal non-actinically damaged skin, seven sites on the trunk of a volunteer were marked and treated with the topical application of a commercially available α1 and/or α2 agonist preparation. Six (of the seven) marked sites were pretreated with the topical application of at least one of the testing preparations. The preparations were applied to the skin and gently rubbed on the skin over and immediately surrounding the laser treatment sites 3 hours prior to and 1 hour prior to the delivery of the laser energy. The applied solution was allowed to air-dry without any dressing. […] After the delivery of the laser energy, each spot received only topical petrolatum jelly 3-4 times/day and no additional application of any testing compound. The sites were followed clinically and photographically 1, 3, 4, 6, 11 and 13 days after the creation of the purpura. The evaluated compounds were:
# Site 8: Oxymetazoline hydrochloride (0.05%): A solution of oxymetazoline hydrochloride 0.05% (Afrin® Original 12 Hour Nasal Spray (Schering-Plough Healthcare Products) containing: oxymetazoline hydrochloride 0.05%, benzalkonium chloride solution, edetate disodium, polyethylene glycol, povidone, propylene glycol, purified water, sodium phosphate dibasic, sodium phosphate monobasic.
# Site 9: Naphazoline hydrochloride (0.03%): A solution of naphazoline hydrochloride 0.03% (Clear Eyes® Maximum Redness Relief (Prestige Brands Inc.) containing: naphazoline hydrochloride 0.03%, glycerin 0.5%, benzalkonium chloride, boric acid, edetate disodium, purified water, sodium borate).
# Site 10: Tetrahydrozoline hydrochloride (0.05%): A solution of tetrahydrozoline hydrochloride 0.05% (Visine® Original (Pfizer Consumer Healthcare) containing: tetrahydrozoline hydrochloride 0.05%, benzalkonium chloride, boric acid, edetate disodium, purified water, sodium borate, sodium chloride).
# Site 11: Phenylephrine hydrochloride (1.0%): A solution of phenylephrine hydrochloride 1.0% (Neo-Synephrine® Extra Strength Spray (Bayer HealthCare) containing: phenylephrine hydrochloride 1.0%, anhydrous citric acid, benzalkonium chloride, sodium chloride, sodium citrate, water).
# Site 14: No treatment after laser light delivered. (“Control”)
# solar purpura [1] = test: Treatment and prevention of solar purpura with topical α1 adrenergic agonist (Example 4); assay type: in vivo, human
# Experimental: Subject 1 is a person with a long-standing history of solar purpura on their forearms. The test area comprised the left dorsal (extensor) forearm from the wrist to the elbow. Pretreatment photos were taken and baseline measurements of the solar purpura on the left extensor forearm from the wrist to the elbow were measured. […] The total area of purpura was 8.94 cm^2. (SEE TABLE 2)
# (§1) A solution of oxymetazoline hydrochloride 0.05% (Afrin® Original 12 Hour Nasal Spray (Schering-Plough Healthcare Products) containing: oxymetazoline hydrochloride 0.05%, benzalkonium chloride solution, edetate disodium, polyethylene glycol, povidone, propylene glycol, purified water, sodium phosphate dibasic, sodium phosphate monobasic (0.005%)) was applied by the patient to the left dorsal forearm twice daily (morning and evening). […] The sites were followed clinically and photographically.
# Subject 2 is a person with a long history of cosmetically disturbing solar purpura on their forearms who wanted to improve the appearance solar (decrease the purpura). The test area comprised the left dorsal (extensor) forearm from the wrist to the elbow. Pretreatment photos were taken and baseline measurements of the solar purpura on the left extensor forearm from the wrist to the elbow were measured. […] The total area of purpura was 1.72 cm^2. (SEE TABLE 3)
# as §1, with “once” for “twice”, “(morning).” for “(morning and evening).”
# solar purpura [2] = conditions: for Effect: decrease of purpura area compared to mean baseline / Purpura Area / Effect: increase of purpura area compared to mean baseline: 0.2% solution twice daily; for Effect: decrease of purpura area compared to mean baseline / Purpura Area: right dorsal forearm; for Purpura Area: mean baseline 3.67 cm^2; for Effect: increase of purpura area compared to mean baseline: day 24, increase in purpura noted after gardening
# Excerpt: The use of a topically applied α2 adrenergic agonist for the treatment and prevention of solar purpura (“actinic purpura”, “Bateman's purpura”): In order to evaluate the effect of topically applied α1 and α2 adrenergic agonists on the prevention and treatment of solar purpura, a volunteer with a diagnosis of solar purpura of the forearms treated with a topically applied α2 adrenergic agonist containing solution. The test area comprised the right extensor forearm from the wrist to the elbow. Photos were taken and baseline scores for the solar purpura on their right dorsal forearm from the wrist to the elbow were measured 6 times over a 91 day period before initiating treatment. Two measurements were taken to approximate the area of each purpuric patch.
# The solution was applied with a cotton ball to the skin of the entire right extensor forearm from the wrist to the elbow. The sites were followed clinically and photographically.
# [3] = Subject 1, 0.05% solution twice daily
# [4] = Subject 2, 0.05% solution once daily
compound,measurement,setting,value
Cc1cc(C(C)(C)C)c(O)c(C)c1CC1=NCCN1 [oxymetazoline hydrochloride],resolution of the purpura compared with non-treated control site,purpura,most pronounced
same,"how pronounced the effect of pretreatment was (smaller purpuric macule/patch, shortened resolution)",laser-induced purpura,more pronounced
same,Purpura Area,"solar purpura [1]; Subject 1, day 17, 0.05% solution twice daily, left extensor forearm, baseline 8.94 cm^2",9.95 cm^2
same,Effect: increase of purpura area compared to baseline,"solar purpura [1]; Subject 1, day 17, 0.05% solution twice daily, hydrochloride",↑ 11% from Baseline
same,Effect: increase of purpura area compared to baseline,"solar purpura [1]; Subject 1, day 17, 0.05% solution twice daily, listed as oxymetazoline, hydrochloride",11%
same,Purpura Area,"solar purpura [1]; Subject 1, day 29, 0.05% solution twice daily, baseline 8.94 cm^2",5.73 cm^2
same,Effect: decrease of purpura area compared to baseline,"solar purpura [1]; Subject 1, day 29, 0.05% solution twice daily, hydrochloride",↓ 36% from Baseline
same,Effect: decrease of purpura area compared to baseline,"solar purpura [1]; Subject 1, day 29, 0.05% solution twice daily, listed as oxymetazoline, hydrochloride",36%
same,Purpura Area,"solar purpura [1]; Subject 1, day 44, 0.05% solution twice daily, baseline 8.94 cm^2",5.6 cm^2
same,Effect: decrease of purpura area compared to baseline,"solar purpura [1]; Subject 1, day 44, 0.05% solution twice daily, hydrochloride",↓ 37% from Baseline
same,Effect: decrease of purpura area compared to baseline,"solar purpura [1]; Subject 1, day 44, 0.05% solution twice daily, listed as oxymetazoline, hydrochloride",37%
same,Purpura Area,"solar purpura [1]; Subject 1, day 81, 0.05% solution twice daily, baseline 8.94 cm^2",1.44 cm^2
same,Effect: decrease of purpura area compared to baseline,"solar purpura [1]; Subject 1, day 81, 0.05% solution twice daily, hydrochloride",↓ 84% from Baseline
same,Effect: decrease of purpura area compared to baseline,"solar purpura [1]; Subject 1, day 81, 0.05% solution twice daily, listed as oxymetazoline, hydrochloride",84%
same,Purpura Area,"solar purpura [1]; Subject 1, day 91 (medication discontinued day 91), 0.05% solution twice daily, baseline 8.94 cm^2",0.42 cm^2
same,Effect: decrease of purpura area compared to baseline,"solar purpura [1]; Subject 1, day 91, 0.05% solution twice daily, hydrochloride",↓ 95% from Baseline
same,Effect: decrease of purpura area compared to baseline,"solar purpura [1]; Subject 1, day 91, 0.05% solution twice daily, listed as oxymetazoline, hydrochloride",95%
same,Purpura Area,"solar purpura [1]; Subject 1, day 98, 7 days off medication, day 91 value 0.42 cm^2",1.96 cm^2
same,Effect: increase of purpura area (table: from Baseline; text: from day 91 measurement),"solar purpura [1]; Subject 1, day 98, 7 days off medication, hydrochloride",↑ 366% from Baseline
same,Effect: increase of purpura area (table: from Baseline; text: from day 91 measurement),"solar purpura [1]; Subject 1, day 98, 7 days off medication, listed as oxymetazoline, hydrochloride",366%
same,Purpura Area,"solar purpura [1]; Subject 1, day 112, 14 days off medication, day 91 value 0.42 cm^2",0.46 cm^2
same,Effect: increase of purpura area (table: from Baseline; text: from day 91 measurement),"solar purpura [1]; Subject 1, day 112, 14 days off medication, hydrochloride",↑ 10% from Baseline
same,Effect: increase of purpura area (table: from Baseline; text: from day 91 measurement),"solar purpura [1]; Subject 1, day 112, 14 days off medication, listed as oxymetazoline, hydrochloride",10%
same,Purpura Area,"solar purpura [1]; Subject 1, day 122, 24 days off medication, day 91 value 0.42 cm^2",2.22 cm^2
same,Effect: increase of purpura area (table: from Baseline; text: from day 91 measurement),"solar purpura [1]; Subject 1, day 122, 24 days off medication, hydrochloride",↑ 428% from Baseline
same,Effect: increase of purpura area (table: from Baseline; text: from day 91 measurement),"solar purpura [1]; Subject 1, day 122, 24 days off medication, listed as oxymetazoline, hydrochloride",428%
same,patient's impression: new purpuric macules/patches while using the medication,solar purpura [1]; [3],fewer new purpuric macules/patches
same,patient's impression: resolution of purpura that occurred,solar purpura [1]; [3],resolve more quickly
same,"side effects, local or systemic, during the treatment","solar purpura [1]; Subject 1, 0.05% solution twice daily, 91 days","no side effects, either local or systemic"
same,Purpura Area,"solar purpura [1]; Subject 2, day 7, 0.05% solution once daily, left extensor forearm, baseline 1.72 cm^2, hydrochloride",0.00 cm^2
same,Purpura Area,"solar purpura [1]; Subject 2, day 7, 0.05% solution once daily, left extensor forearm, baseline 1.72 cm^2, listed as oxymetazoline, hydrochloride",0 cm^2
same,Effect: decrease of purpura area compared to baseline,"solar purpura [1]; Subject 2, day 7, 0.05% solution once daily, hydrochloride",↓ 100% from Baseline
same,Effect: decrease of purpura area compared to baseline,"solar purpura [1]; Subject 2, day 7, 0.05% solution once daily, listed as oxymetazoline, hydrochloride",100%
same,Purpura Area,"solar purpura [1]; Subject 2, day 31, 0.05% solution once daily, baseline 1.72 cm^2, hydrochloride",0.00 cm^2
same,Purpura Area,"solar purpura [1]; Subject 2, day 31, 0.05% solution once daily, baseline 1.72 cm^2, listed as oxymetazoline, hydrochloride",0 cm^2
same,Effect: decrease of purpura area compared to baseline,"solar purpura [1]; Subject 2, day 31, 0.05% solution once daily, hydrochloride",↓ 100% from Baseline
same,Effect: decrease of purpura area compared to baseline,"solar purpura [1]; Subject 2, day 31, 0.05% solution once daily, listed as oxymetazoline, hydrochloride",100%
same,Purpura Area,"solar purpura [1]; Subject 2, day 36, 0.05% solution once daily, baseline 1.72 cm^2",0.36 cm^2
same,patient's impression: new purpuric patches while using the medication,solar purpura [1]; [4],fewer new purpuric patches
same,patient's impression: resolution of purpura that occurred,solar purpura [1]; [4],resolve more quickly
same,"side effects, local or systemic, during the treatment",solar purpura [1]; [4],"no side effects, either local or systemic"
same,overall outcome of the trials on solar purpura,"solar purpura [1]; topically applied once or twice daily, two subjects",dramatically reduces the size and appearance of purpuric macules/patches and may eliminate them
brimonidine tartrate,"how pronounced the effect of pretreatment was (smaller purpuric macule/patch, shortened resolution)",laser-induced purpura,less pronounced
same,overall outcome of the trial on solar purpura,solar purpura [2]; 0.2% topically applied twice daily,reduces the size and appearance of purpuric macules/patches
same,Effect: decrease of purpura area compared to mean baseline,solar purpura [2]; day 7,↓ 60% from Baseline
same,Purpura Area,"solar purpura [2]; day 7, person",1.48 cm^2
same,Effect: decrease of purpura area compared to mean baseline,"solar purpura [2]; day 7, listed as brimonidine",60%
same,Effect: decrease of purpura area compared to mean baseline,solar purpura [2]; day 14,↓ 90% from Baseline
same,Effect: decrease of purpura area compared to mean baseline,"solar purpura [2]; day 14, listed as brimonidine",90%
same,Purpura Area,solar purpura [2]; day 14,0.35 cm^2
same,Purpura Area,"solar purpura [2]; day 24, after gardening",5.72 cm^2
same,Effect: increase of purpura area compared to mean baseline,solar purpura [2],↑ 34% from Baseline
same,Effect: increase of purpura area compared to mean baseline,solar purpura [2]; listed as brimonidine,34%
same,Purpura Area,solar purpura [2]; day 36,2.52 cm^2
c1ccc2c(c1)CCCC2C1=NCCN1 (centres unmarked) [tetrahydrozoline hydrochloride],"how pronounced the effect of pretreatment was (smaller purpuric macule/patch, shortened resolution)",laser-induced purpura,more pronounced
CNC[C@H](O)c1cccc(O)c1 [phenylephrine hydrochloride],resolution of the purpura compared with non-treated control site,purpura,most pronounced
same,"how pronounced the effect of pretreatment was (smaller purpuric macule/patch, shortened resolution)",laser-induced purpura,more pronounced
c1ccc2c(CC3=NCCN3)cccc2c1 [naphazoline hydrochloride],resolution of the purpura compared with non-treated control site,purpura,most pronounced
same,"how pronounced the effect of pretreatment was (smaller purpuric macule/patch, shortened resolution)",laser-induced purpura,more pronounced
